Tests used:
[1] = Average particle size, PDI, zeta potential (dynamic light scattering) and RNA encapsulation efficiency (RiboGreen) of lipid nanoparticles; format: physicochemical
Protocol: The average particle size, particle size distribution, and zeta potential of the lipid nanoparticles were measured using a Zetasizer Nano ZS (Malvern Instruments Ltd, UK) by dynamic light scattering and the form of lipid nanoparticle was measured using a transmission electron-microscope as described in NPL 12. The efficiency of mRNA encapsulation was estimated by RiboGreen fluorometry as described in NPL 13. Although the respective values vary depending on the type of pH-sensitive cationic lipid, the composition of the lipids constituting the lipid nanoparticles, the preparation conditions of the lipid nanoparticles, and the like, the average particle size of the lipid nanoparticles was in the range of 80 to 350 nm, the PDI was in the range of 0.05 to 0.4, the zeta potential was in the range of −16 to +5 mV, and the efficiency of mRNA encapsulation was 75 to 95%. • [NPL 12] Mahmoud A. Younis, et al., “A Multifunctional Lipid-Based Nanodevice for the Highly Specific Codelivery of Sorafenib and Midkine siRNA to Hepatic Cancer Cells”, Molecular Pharmaceutics, Vol. 16, pp. 4031-4044 • [NPL 13] Mahmoud M. Abd Elwakil, et al., “Engineered &-decalactone lipomers bypass the liver to selectively in vivo deliver mRNA to the lungs without targeting ligands”, Materials Horizons, Vol. 8, pp. 2251-2259
The average particle size, particle size distribution, and zeta potential of the lipid nanoparticles were measured in the same manner as in Example 1 to estimate the efficiency of SMO-siRNA encapsulation. The relationship between the flow rate ratio of the aqueous phase to the organic phase, the average particle size, particle size distribution, zeta potential, and SMO-siRNA encapsulation efficiency of the lipid nanoparticles prepared at the same flow rate ratio when CL15H6 was used as the pH-sensitive cationic lipid is shown in Table 3 below. In the subsequent experiments, lipid nanoparticles were prepared at a ratio of 4:1 (aqueous phase: organic phase), which provided the highest encapsulation efficiency, the smallest average particle size, and the smallest PDI.

normal mice = assay: Biological safety in normal mice (serum markers, histopathology); format: in vivo; settings: CL15A6 lipid nanoparticles with EGFP mRNA, 2 mg/kg RNA iv, 24 hours
Protocol: In order to exclude the effects of liver fibrosis on hepatic function and tissues, the biosafety of the lipid nanoparticle prepared by using CL15A6 was evaluated in normal mice. Lipid nanoparticles containing EGFP mRNA were administered intravenously to mice at an amount of 2 mg/kg RNA per kg body weight. Twenty-four hours after the administration, the mice were euthanized, and serum and major organs were collected and analyzed in comparison with control mice treated with HEPES buffer. Aspartate transaminase (AST), alanine aminotransferase (ALT), and creatinine (CRE), which are functional markers of the liver or kidney, in plasma were colorimetrically quantified using a commercially available kit (Sigma-Aldrich), and the results were compared. In addition, the collected organs were fixed, stained with hematoxylin and eosin, and histopathologically evaluated as described in NPL 17. • [NPL 17] Mahmoud A. Younis, et al., “Ultra-small lipid nanoparticles encapsulating sorafenib and midkine-siRNA selectively-eradicate sorafenib-resistant hepatocellular carcinoma in vivo”, J Control Release, Vol. 331, pp. 335-349

[2] = test system: activated hepatic stellate cell line LX-2; assay: EGFP mRNA delivery and transfection screening by FACS; format: cell-based; settings: LX-2 cells; EGFP mRNA lipid nanoparticles, 250 ng mRNA per well
Protocol: Fourteen types of lipid nanoparticles prepared were screened with activated hepatic stellate cell line LX-2 (Merck (Germany) and hepatocyte line FL83B (ATCC, USA).
Twenty-four hours prior to the experiment, cells were seeded in 6-well plates at 1×10^5 cells/well and incubated at 37° C. The medium was aspirated and the cells were washed with (−) PBS and then treated with lipid nanoparticles encapsulating EGFP mRNA (TriLink BioTechnologies, USA) in 1.5 ml of growth medium for 24 hours. The amount of mRNA per well was 250 ng. Cells were then washed with (−) PBS and incubated in fresh medium for an additional 21 hours. The median fluorescence intensity of EGFP and the percentage of transfected cells were evaluated by fluorescence activated cell sorting (FACS) using a flow cytometer (Cytoflex, Beckman Coulter, USA).

SMO mRNA = assay: In vivo SMO mRNA knockdown in liver tissue by qRT-PCR; design: species or system mice; settings: SMO-siRNA lipid nanoparticles, 0.5 mg/kg RNA iv, 24 hours, versus HEPES buffer control
Protocol: TAA-induced liver fibrosis model mice were prepared in the same manner as in Example 1, and SMO-siRNA-encapsulated lipid nanoparticles were intravenously administered to the mice via the tail vein so that the amount of RNA per kg of body weight was 0.5 mg/kg. 24 hours after the administration, the mouse livers were collected. The ratio of the amount of SMO mRNA to the amount of GAPDH mRNA in the liver tissue was confirmed by qRT-PCR. The SMO gene is expressed only in hepatic stellate cells in the liver.
Next, a lipid composition containing CL15H6 and SMO-siRNA were mixed in different ratios to prepare lipid nanoparticles with different nitrogen/phosphate (N/P) ratios. Specifically, lipid nanoparticles were prepared with N/P ratios of 0.5, 1, 2, 4, 8, 12, 16, and 20. The prepared lipid nanoparticles were intravenously administered to mice with liver fibrosis so that the amount of RNA per kg of body weight was 0.5 mg/kg, and the ratio of the amount of SMO mRNA to the amount of GAPDH mRNA in the liver tissue was confirmed 24 hours later.
Next, the relationship between the dosage amount of SMO-siRNA and the ratio of the amount of SMO mRNA to the amount of GAPDH mRNA in the liver tissue was examined. For comparison, the relationship between the dosage amount of control siRNA (siCtrl) and the ratio of SMO mRNA to GAPDH mRNA in hepatic stellate cells was also examined.
Lipid nanoparticles encapsulating a mixture of the above SMO-siRNA and TGFβ1-siRNA at a ratio of 1:1 were prepared by using CL15H6, the above SMO-siRNA (SEQ ID NOs: 1 and 2) targeting the mRNA of the SMO gene and the TGFβ1-siRNA (SEQ ID NOS: 3 and 4) targeting the mRNA of the TGFβ1 gene and having the sequence shown in Table 4 below. The prepared lipid nanoparticles were intravenously administered to mice with liver fibrosis so that each of the amounts of SMO-siRNA and of TGFβ1-siRNA per kg of body weight was 0.25 mg/kg, and 24 hours later, the ratios of the amounts of SMO mRNA and of TGFβ1 mRNA to the amount of GAPDH mRNA in the liver tissue was confirmed.

[3] = lipid nanoparticles CL15A6:DOPE:cholesterol:DMG-PEG2K 5:3:2:0.3

Work on `CCCCC/C=C\C/C=C\CCCCCCCCC(O)(CCCCCCCC/C=C\C/C=C\CCCCC)CCCCOC(=O)C1CCN(C)CC1` [CL15A6, (14z,17z)-5-hydroxy-5-((9z,12z)-octadeca-9,12-dien-1-yl)tricosa-14,17-dien-1-yl 1-methylpiperidine-4-carboxylate] yielded a particle size ([1]; CL15A6 mRNA lipid nanoparticles, DMG-PEG2K 1.5 mol %) of 100 nm, an Average particle size ([1]; CL15A6 mRNA lipid nanoparticles, N/P ratio increased from 4 to 8) of 80 nm and an Average particle size [1, 3] of 80 nm. For the same compound, the PDI [1, 3] was < 0.1, the ALT (normal mice) was “no significant increases” and the AST (normal mice) was “no significant increases”. The CRE (normal mice) was “no significant increases”, the “histopathology of major organs (liver, lung, heart, and kidney)” value (normal mice) was “no signs of injury” and the “mRNA delivery efficiency (median fluorescence intensity of EGFP)” value [2] was “high and promising”. The “transfection efficiency (percentage of transfected cells)” value [2] was “promising” and the “amount of SMO mRNA (ratio to GAPDH mRNA) in liver tissue” value (SMO mRNA) was “significantly reduced”.
